The source of these data is article PMC10149936, “Cofilin activation in pancreatic acinar cells plays a pivotal convergent role for mediating CCK-stimulated enzyme secretion and growth” (Frontiers in Physiology, 2023).

Assay [1] concerns cofilin (pS3) in rat pancreatic acini. Put plainly: cofilin activation (phospho-pS3 cofilin Western blot) in isolated rat pancreatic acini. Format: cell-based. Conditions: for phosphorylation levels of cofilin with CCK-8 or TPA after cofilin inhibitor / inhibition of cofilin activation stimulated by CCK-8 or TPA: Cytochalasin D 10 µM or Paclitaxel 5 µM, 3 h; for phosphorylation levels of cofilin with CCK-8 or TPA after cofilin inhibitor: CCK-8 0.3 and 100 nM; for phosphorylation levels of cofilin with CCK-8 or TPA after cofilin inhibitor / time of return of cofilin phosphorylation to original basal level: TPA 1 µM; for inhibition of cofilin activation stimulated by CCK-8 or TPA: CCK-8 0.3 or 100 nM 3 min, TPA 1 µM 5 min; for time of return of cofilin phosphorylation to original basal level: CCK-8 0.3 or 100 nM.

For assay [2], the system named is pancreatic acini. Put plainly: amylase release from pancreatic acini (Phadebas). The conditions noted are these: for inhibition of amylase secretion stimulated by CCK-8 and TPA / effect on basal amylase release: Cytochalasin D 10 µM or Paclitaxel 5 µM; for inhibition of amylase secretion stimulated by CCK-8 and TPA: 4 h, CCK-8 0.3 and 100 nM; for inhibition of amylase secretion stimulated by CCK-8 and TPA / increase in amylase release: 30 min; for effect on basal amylase release: pancreatic acini (Figure 13A). The format is cell-based, rat. As for the experimental part: Pancreatic acini preparations were obtained by collagenase digestion as previously described ([Bissonnette et al., 1984]; [Sato et al., 1989]; [Ramos-Alvarez and Jensen, 2018]). […] Isolated acini and CCK1-R/Panc-1 cells (M&M 2.2.1) were also preincubated with two SSH1 inhibitors, D3 (25 μM, 1 h) ([Li et al., 2015]) or SE (50 μM, 3 h for acini; 24 h for CCK1-R/Panc-1 cells) ([Lee et al., 2017]). After preincubation, 1 mL aliquots of dispersed acini were incubated at 37°C for 3–15 min with CCK-8 (0.3 nM or 100 nM), for 5–15 min with TPA (1 µM) or without stimulants, used as control. Cells were lysed in lysis buffer (50 mM Tris/HCl pH 7.5, 150 mM NaCl, 1% Triton X-100, 1% deoxycholate, 0.1% sodium azide, 1 mM EGTA, 0.4 mM EDTA, 0.2 mM sodium orthovanadate, 1 mM PMSF, and one protease inhibitor tablet per 10 mL). After sonication, lysates were centrifuged at 10,000×g for 15 min at 4°C and protein concentration was measured using the Bio-Rad protein assay reagent. Finally, cells were processed as below for Western blotting.
Amylase release was performed as described previously ([Sato et al., 1989]; [Ramos-Alvarez and Jensen, 2018]). Amylase activity was determined after 30 min incubation using the Phadebas reagent and was expressed as percentage of the total cellular amylase released into the extracellular medium during the incubation ([Ramos-Alvarez and Jensen, 2018]).
FIGURE 13 Effect of two cofilin inhibitors, Cytochalasin D or Paclitaxel, (A, B), or Cofilin siRNA (C), on the ability of CCK/TPA/A71378-stimulated amylase release form pancreatic acini (A) or AR42J cells (B, C). In (A, B) pancreatic acini and AR42J cells were incubated in the absence or presence of Cytochalasin D (10 µM) or Paclitaxel (5 µM) for 4 h and then incubated with no additions (control) or CCK-8 (0.03, 0.3, 1 and 100 nM), TPA (1 µM) or A71378 (0.03 and 1 nM) for 30 min and then lysed. In (B, C) AR42J cells were treated with Dexamethasone (100 nM) for 72 h, and in (C) AR42J cells were transfected with siRNA Non-targeting Control and siRNA against cofilin for 48 h, and then incubated with no addition (control) or CCK-8 (0.03 and 1 nM) and A71378 (0.03 and 1 nM) for 30 min. Amylase release, expressed as percent of cellular total amylase secreted, was determined after 30 min incubation. Means ± S.E. of at least 3 independent experiments. N.S., No significant.

Take `C=C1[C@@H](C)[C@H]2[C@H](Cc3ccccc3)NC(=O)[C@]23[C@H](OC(C)=O)/C=C/[C@@](C)(O)C(=O)[C@@H](C)C/C=C/[C@H]3[C@@H]1O` [Cytochalasin D]: in assay [1], the “phosphorylation levels of cofilin with CCK-8 or TPA after cofilin inhibitor” value is “significant increase in phosphorylation levels of cofilin” and the “inhibition of cofilin activation stimulated by CCK-8 or TPA” value is “completely inhibited”. For the same compound, the “inhibition of amylase secretion stimulated by CCK-8 and TPA” value in assay [2] (TPA 1 µM) is reported as “completely inhibited”. Moreover, the “effect on basal amylase release” value in assay [2] is “Neither of these two cofilin inhibitors influenced basal amylase release”.

For the compound `CC(=O)O[C@H]1C(=O)[C@@]2(C)[C@H]([C@H](OC(=O)c3ccccc3)[C@]3(O)C[C@H](OC(=O)[C@H](O)[C@@H](NC(=O)c4ccccc4)c4ccccc4)C(C)=C1C3(C)C)[C@]1(OC(C)=O)CO[C@@H]1C[C@@H]2O` [Paclitaxel], in assay [1], the “phosphorylation levels of cofilin with CCK-8 or TPA after cofilin inhibitor” value was “significant increase in phosphorylation levels of cofilin” and the “inhibition of cofilin activation stimulated by CCK-8 or TPA” value is “completely inhibited”. The “inhibition of amylase secretion stimulated by CCK-8 and TPA” value in assay [2] (TPA 1 µM) was “completely inhibited”. For the same compound, the “effect on basal amylase release” value in assay [2] was “Neither of these two cofilin inhibitors influenced basal amylase release”.

For `CCCCCCCCCCCCCC(=O)O[C@@H]1[C@@H](C)[C@@]2(O)[C@@H](C=C(CO)C[C@]3(O)C(=O)C(C)=C[C@@H]23)[C@H]2C(C)(C)[C@]12OC(C)=O` [TPA, 12-O-tetradecanoylphobol-13-acetate], in assay [1], the “time of return of cofilin phosphorylation to original basal level” value was determined as 60 min. The “increase in amylase release” value in assay [2] (TPA 1 µM) is recorded as 278%.

In the case of “COOH-terminal octapeptide of cholecystokinin [CCK-8]”, the “effect on cofilin phosphorylation (pS3)” value in assay [1] (1 min, CCK-8 100 nM, carbachol 1 μM, bombesin 1 nM, secretin 1 nM or VIP 1 nM, n at least 3) was “rapidly decreased cofilin phosphorylation”. In addition, the “concentration with detectible decrease in cofilin phosphorylation” value in assay [1] (3 min) was 1 pM. Moreover, the “time of return of cofilin phosphorylation to original basal level” value in assay [1] was found to be 60 min. In addition, the “maximal dephosphorylation (i.e., activation) of cofilin” value in assay [1] (at 1 nM, 3 min) worked out at 62%. Besides, in assay [1] (from comparison with CCK-JMV), the “share of CCK-8 stimulation of cofilin activation mediated by the high-affinity state CCK1 receptor” value is 58% and the “share of CCK-8 stimulation of cofilin activation mediated by the low affinity CCK1 receptor state” value is listed as 42%. Also, the EC50 in assay [1] (pS3 cofilin, 3 min incubation, at least 3 experiments, mean ± SEM, read-out: half-maximal effect (EC50) for decrease of cofilin phosphorylation) was 1.8 ± 0.1 pM. Also, the “increase in amylase release” value in assay [2] (CCK-8 0.3 nM) amounted to 207%.
